{"source": "paper PMC11280411", "about": "“Phytochemical Investigation of Carex praecox Schreb. and ACE-Inhibitory Activity of Oligomer Stilbenes of the Plant” (Molecules, 2024)", "origin": "cited, not measured here", "tested_on": "SARS-CoV-2 USA-WA1/2020, B.1.1.7, and B.1.351 variants", "set-up": "method as in PMID 34543092", "conditions": "cited from earlier work"}
{"smiles": "Oc1ccc(C2Oc3cc(O)cc4c3C2c2cc(O)cc(O)c2C(c2ccc(O)cc2)C4C2c3cc(O)cc4c3C(c3cc(O)cc(O)c3C2c2ccc(O)cc2)C(c2ccc(O)cc2)O4)cc1", "note": "(single isomer, unassigned; (-)) [Compound 16, (–)-hopeaphenol]", "values": [{"measurement": "inhibition of cellular entry of SARS-CoV-2", "value": "inhibited cellular entry of SARS-CoV-2 USA-WA1/2020, B.1.1.7, and B.1.351 variants"}]}
